Source: PubChem BioAssay AID256 (DTP/NCI, 2004)
Toxic doses and inconclusive results are not listed. Rule for the calls: active = survival T/C of 150% or more; inactive = T/C below 125% in these data.

Tested on: CD2F1 mice, L1210 leukemia ip, survival T/C
Test: NCI In Vivo Anticancer Drug Screen. Data for tumor model L1210 Leukemia (intraperitoneal) in CD2F1 (CDF1) mice
Settings: endpoint: mean survival time, higher = longer survival
Outline: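 Transplantable tumor in mice; compound-treated vs vehicle-treated groups. Read-out = treated/control ratio of the measured endpoint.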

[1] = dose: 100.0 mg/kg/injection, schedule: Q01DX001 (ip), vehicle: saline
[2] = dose: 200.0 mg/kg/injection, schedule: Q01DX001 (ip), vehicle: saline
[3] = dose: 100.0 mg/kg/injection, schedule: Q01DX001 (ip), vehicle: saline with Tween-80
[4] = dose: 200.0 mg/kg/injection, schedule: Q01DX001 (ip), vehicle: saline with Tween-80
[5] = dose: 400.0 mg/kg/injection, schedule: Q01DX001 (ip), vehicle: saline with Tween-80
[6] = dose: 100.0 mg/kg/injection, schedule: Q01DX009 (ip), vehicle: saline with Tween-80
[7] = dose: 200.0 mg/kg/injection, schedule: Q01DX009 (ip), vehicle: saline with Tween-80
[8] = dose: 400.0 mg/kg/injection, schedule: Q01DX009 (ip), vehicle: saline with Tween-80
[9] = dose: 100.0 mg/kg/injection, schedule: Q04DX002 (ip), vehicle: saline with Tween-80
[10] = dose: 200.0 mg/kg/injection, schedule: Q04DX002 (ip), vehicle: saline with Tween-80
[11] = dose: 400.0 mg/kg/injection, schedule: Q04DX002 (ip), vehicle: saline with Tween-80
[12] = dose: 100.0 mg/kg/injection, schedule: Q04DX003 (ip), vehicle: saline with Tween-80
[13] = dose: 200.0 mg/kg/injection, schedule: Q04DX003 (ip), vehicle: saline with Tween-80
[14] = dose: 400.0 mg/kg/injection, schedule: Q04DX003 (ip), vehicle: saline with Tween-80

Measured: T/C

CC1CCC(C)(C)CC1(C)c1cc(CN(C)C)c(O)c(CN(C)C)c1 (stereo not given)
inactive: dose: 12.5 mg/kg/injection, schedule: Q01DX009 (ip), vehicle: acetone 95 % of control | dose: 25.0 mg/kg/injection, schedule: Q01DX009 (ip), vehicle: acetone 98 % of control | dose: 50.0 mg/kg/injection, schedule: Q01DX009 (ip), vehicle: acetone 98 % of control

O=P(OCCCl)(OCCCl)C(Cl)(Cl)Cl
inactive: [1] 103 % of control | [2] 102 % of control | dose: 400.0 mg/kg/injection, schedule: Q01DX001 (ip), vehicle: saline 103 % of control

CC1CC(C)(C)NC1=O (stereo not given)
inactive: dose: 6.25 mg/kg/injection, schedule: Q04DX003 (ip), vehicle: saline 103 % of control | dose: 12.5 mg/kg/injection, schedule: Q04DX003 (ip), vehicle: saline 104 % of control | dose: 25.0 mg/kg/injection, schedule: Q04DX003 (ip), vehicle: saline 95 % of control

CCOC(=O)C(=O)NCCc1ccc2c(c1)OCO2
inactive: [3] 97 % of control | [4] 95 % of control | [5] 100 % of control

Clc1cc2n[nH]nc2c(Cl)n1
inactive: dose: 25.0 mg/kg/injection, schedule: Q01DX009 (ip), vehicle: water 90 % of control | dose: 50.0 mg/kg/injection, schedule: Q01DX009 (ip), vehicle: water 90 % of control | dose: 100.0 mg/kg/injection, schedule: Q01DX009 (ip), vehicle: water 90 % of control

CC1Cc2ccccc2C1=O (stereo not given)
inactive: [6] 90 % of control | [7] 91 % of control | [8] 94 % of control

c1cc2c(cc1CC1CCNC1)OCO2 (stereo not given)
inactive: dose: 5.0 mg/kg/injection, schedule: Q01DX001 (ip), vehicle: saline 103 % of control | dose: 5.0 mg/kg/injection, schedule: Q01DX009 (ip), vehicle: saline sonified 100 % of control | dose: 5.0 mg/kg/injection, schedule: Q04DX003 (ip), vehicle: saline 101 % of control | dose: 10.0 mg/kg/injection, schedule: Q01DX001 (ip), vehicle: saline 103 % of control | dose: 10.0 mg/kg/injection, schedule: Q01DX009 (ip), vehicle: saline sonified 91 % of control | dose: 10.0 mg/kg/injection, schedule: Q04DX003 (ip), vehicle: saline 102 % of control | dose: 20.0 mg/kg/injection, schedule: Q01DX001 (ip), vehicle: saline 98 % of control | dose: 20.0 mg/kg/injection, schedule: Q01DX009 (ip), vehicle: saline sonified 100 % of control | dose: 20.0 mg/kg/injection, schedule: Q04DX003 (ip), vehicle: saline 101 % of control

O/N=C/c1ccc(O)cc1O
inactive: [1] 100 % of control | [2] 102 % of control

CCCCNC(C)(C)C(S)c1ccc(Cl)cc1 (stereo not given)
inactive: dose: 12.0 mg/kg/injection, schedule: Q04DX003 (ip), vehicle: other 96 % of control | dose: 25.0 mg/kg/injection, schedule: Q04DX003 (ip), vehicle: other 105 % of control | dose: 50.0 mg/kg/injection, schedule: Q04DX003 (ip), vehicle: other 94 % of control

c1ccc(N=Nn2c3ccccc3c3ccccc32)cc1
inactive: [3] 104 % of control | [4] 102 % of control | dose: 264.0 mg/kg/injection, schedule: Q01DX001 (ip), vehicle: saline with Tween-80 104 % of control | [5] 120 % of control | dose: 600.0 mg/kg/injection, schedule: Q01DX001 (ip), vehicle: saline with Tween-80 104 % of control

NC(=O)c1ncc(-c2ccc(Cl)cc2)[nH]c1=O
inactive: dose: 100.0 mg/kg/injection, schedule: Q04DX003 (ip), vehicle: saline sonified 94 % of control | dose: 200.0 mg/kg/injection, schedule: Q04DX003 (ip), vehicle: saline sonified 93 % of control | dose: 400.0 mg/kg/injection, schedule: Q04DX003 (ip), vehicle: saline sonified 96 % of control

COc1cc(C2=N/C(=C\c3ccc(C(C)C)cc3)C(=O)O2)cc(OC)c1OC
inactive: [9] 90 % of control | [10] 90 % of control | [11] 94 % of control

Cc1ccc(S(=O)(=O)Nc2ccccc2-c2nc3ccc(C)cc3c(=O)o2)cc1
inactive: [6] 100 % of control | [7] 91 % of control | [8] 96 % of control

Cc1ccc(C)c(C(O)C2CC2)c1 (stereo not given)
inactive: dose: 100.0 mg/kg/injection, schedule: Q01DX009 (ip), vehicle: saline 96 % of control | dose: 200.0 mg/kg/injection, schedule: Q01DX009 (ip), vehicle: saline 100 % of control | dose: 400.0 mg/kg/injection, schedule: Q01DX009 (ip), vehicle: saline 102 % of control

Cc1ccc(C2=C(O)C(=O)C(c3ccc(C)cc3)C2=O)cc1 (stereo not given)
inactive: [12] 93 % of control | [13] 96 % of control

NCCS/C=C(\Br)C(=O)OCc1ccc(Br)cc1
inactive: [12] 96 % of control | [13] 98 % of control

CNNC1CCC2C3CCc4cc(O)ccc4C3CCC12C (stereo not given)
inactive: dose: 12.5 mg/kg/injection, schedule: Q01DX009 (ip), vehicle: Klucel (hydroxypropylcellulose) (HPC) 91 % of control | dose: 25.0 mg/kg/injection, schedule: Q01DX009 (ip), vehicle: Klucel (hydroxypropylcellulose) (HPC) 94 % of control | dose: 50.0 mg/kg/injection, schedule: Q01DX009 (ip), vehicle: Klucel (hydroxypropylcellulose) (HPC) 91 % of control

Cn1c(=O)c2c(ncn2-c2ccncc2)n(C)c1=O
inactive: dose: 12.5 mg/kg/injection, schedule: Q01DX005 (ip), vehicle: saline with Tween-80 93 % of control | dose: 25.0 mg/kg/injection, schedule: Q01DX005 (ip), vehicle: saline with Tween-80 98 % of control | dose: 50.0 mg/kg/injection, schedule: Q01DX005 (ip), vehicle: saline with Tween-80 96 % of control | dose: 100.0 mg/kg/injection, schedule: Q01DX005 (ip), vehicle: saline with Tween-80 104 % of control

O=C(CC(O)(C(F)(F)F)C(F)(F)F)c1ccc(Cl)c2ccccc12
inactive: dose: 100.0 mg/kg/injection, schedule: Q01DX001 (ip), vehicle: other 102 % of control | dose: 200.0 mg/kg/injection, schedule: Q01DX001 (ip), vehicle: other 100 % of control | dose: 400.0 mg/kg/injection, schedule: Q01DX001 (ip), vehicle: other 96 % of control

Cc1cc(NC(=O)SCCOC(=O)COc2ccc(Cl)cc2)ccc1Cl
inactive: [12] 91 % of control | [13] 91 % of control | [14] 89 % of control

Nc1nc(-c2cccc([N+](=O)[O-])c2)c(N=Nc2ccccc2[N+](=O)[O-])s1
inactive: [3] 96 % of control | [5] 98 % of control

NC(=S)N/N=C/c1ccc2c(c1)OCO2
inactive: dose: 50.0 mg/kg/injection, schedule: Q01DX009 (ip), vehicle: saline with Tween-80 98 % of control | [6] 110 % of control | [7] 98 % of control

Cc1ccccc1NC(=O)Oc1ccc(Cl)cc1C
inactive: [9] 101 % of control | [10] 93 % of control | [11] 97 % of control

CC(C)(C)c1cc(Cc2cc(C(C)(C)C)c(O)c(C(C)(C)C)c2)cc(C(C)(C)C)c1O
inactive: [3] 91 % of control | [4] 91 % of control | [5] 103 % of control

CCCC(C)C1(CC)C(=O)NC(=O)NC1=O (stereo not given)
inactive: dose: 20.0 mg/kg/injection, schedule: Q01DX009 (ip), vehicle: saline 95 % of control | dose: 40.0 mg/kg/injection, schedule: Q01DX009 (ip), vehicle: saline 104 % of control

CC12C(=O)C(C(c3ccccc3)=C1c1ccccc1)C(C(=O)O)C2C(=O)O (stereo not given)
inactive: [12] 89 % of control | [13] 93 % of control | [14] 101 % of control

COc1ccc(/C(C)=N/N=C\c2cc(OC)c(OC)c(OC)c2)cc1
inactive: [6] 91 % of control | [7] 89 % of control | [8] 88 % of control
